Measurements as given in the NIST ThermoML archive (doi:10.1021/je100832h).
± gives the expanded uncertainty stated by the source.

Conditions: Liquid; for mass density: 101.32 kPa, Vibrating tube method; for vapor or sublimation pressure: Ebulliometric method (Recirculating still)

CCCCCC [hexane]
Conditions	mass density [kg/m3]	vapor or sublimation pressure [kPa]
291.15 K	661.17 ± 0.52	–
292.98 K	–	15.88 ± 0.06
296.27 K	–	18.39 ± 0.06
298.15 K	654.9 ± 0.51	–
298.95 K	–	20.69 ± 0.07
302.2 K	–	23.81 ± 0.07
304.49 K	–	26.19 ± 0.08
306.76 K	–	28.77 ± 0.09
308.28 K	–	30.68 ± 0.09
310.14 K	–	32.97 ± 0.09
311.96 K	–	35.53 ± 0.1
313.7 K	–	37.95 ± 0.1
315.07 K	–	40.1 ± 0.11
316.51 K	–	42.3 ± 0.11
317.91 K	–	44.59 ± 0.12
318.15 K	636.5 ± 0.5	–
319.58 K	–	47.35 ± 0.12
320.83 K	–	49.63 ± 0.13
322.02 K	–	51.87 ± 0.13
323.45 K	–	54.51 ± 0.14
324.35 K	–	56.42 ± 0.14
325.74 K	–	59.15 ± 0.15
327.09 K	–	62.05 ± 0.16
327.99 K	–	64.02 ± 0.16
328.15 K	627 ± 0.5	–
329.13 K	–	66.61 ± 0.17
330.14 K	–	68.93 ± 0.17
330.93 K	–	70.86 ± 0.18
331.87 K	–	73.11 ± 0.18
332.87 K	–	75.62 ± 0.19
333.77 K	–	78.04 ± 0.19
334.61 K	–	80.11 ± 0.2
335.65 K	–	82.94 ± 0.2
336.53 K	–	85.4 ± 0.21
337.38 K	–	87.73 ± 0.21
338.26 K	–	90.28 ± 0.22
339.25 K	–	93.18 ± 0.23
340.1 K	–	95.79 ± 0.23
340.92 K	–	98.28 ± 0.24
341.17 K	–	99.08 ± 0.24
341.6 K	–	100.39 ± 0.24
341.88 K	–	101.32 ± 0.25
342.34 K	–	102.83 ± 0.25
343.01 K	–	104.95 ± 0.25
343.62 K	–	106.98 ± 0.26
344.52 K	–	110.01 ± 0.27
344.69 K	–	110.65 ± 0.27
345.43 K	–	113.16 ± 0.27
346.05 K	–	115.31 ± 0.27
346.66 K	–	117.46 ± 0.28
347.36 K	–	119.99 ± 0.28
348.05 K	–	122.52 ± 0.29
348.44 K	–	124.01 ± 0.29
349.04 K	–	126.23 ± 0.3
349.61 K	–	128.44 ± 0.3
349.82 K	–	129.32 ± 0.3
350.34 K	–	131.23 ± 0.31
350.82 K	–	133.07 ± 0.31
351.42 K	–	135.49 ± 0.32
351.93 K	–	137.54 ± 0.32
352.53 K	–	139.99 ± 0.33
352.83 K	–	141.31 ± 0.33
353.22 K	–	142.8 ± 0.34
353.87 K	–	145.75 ± 0.34
354.23 K	–	147.04 ± 0.34
354.71 K	–	149.34 ± 0.35
355.4 K	–	152.14 ± 0.35
355.66 K	–	153.31 ± 0.36
356.04 K	–	155.14 ± 0.36
356.52 K	–	157.29 ± 0.36
357.01 K	–	159.38 ± 0.37
357.38 K	–	161.05 ± 0.37
357.8 K	–	162.94 ± 0.38
358.47 K	–	166.02 ± 0.38
358.88 K	–	167.98 ± 0.39
359.18 K	–	169.31 ± 0.39
359.69 K	–	171.84 ± 0.4
359.9 K	–	172.89 ± 0.4
360.51 K	–	175.78 ± 0.4
360.8 K	–	177.31 ± 0.41
361.09 K	–	178.67 ± 0.41
361.54 K	–	180.95 ± 0.42
361.86 K	–	182.61 ± 0.42
362.43 K	–	185.32 ± 0.42
362.68 K	–	186.64 ± 0.43
362.98 K	–	188.2 ± 0.43
363.52 K	–	191.05 ± 0.44
363.95 K	–	193.35 ± 0.44

CCCCCCCCC [nonane]
Conditions	mass density [kg/m3]	vapor or sublimation pressure [kPa]
291.15 K	719.2 ± 0.56	–
298.15 K	713.85 ± 0.55	–
318.15 K	698.09 ± 0.54	–
328.15 K	690.4 ± 0.54	–
365.3 K	–	15.58 ± 0.06
369.25 K	–	18.07 ± 0.06
372.81 K	–	20.58 ± 0.07
376.46 K	–	23.49 ± 0.07
379.71 K	–	26.35 ± 0.08
382.25 K	–	28.78 ± 0.08
384.65 K	–	31.22 ± 0.09
387.02 K	–	33.8 ± 0.09
389.45 K	–	36.62 ± 0.1
391.8 K	–	39.52 ± 0.1
393.48 K	–	41.74 ± 0.11
395.26 K	–	44.15 ± 0.11
396.96 K	–	46.56 ± 0.12
398.71 K	–	49.15 ± 0.12
400.61 K	–	52.12 ± 0.13
402.01 K	–	54.42 ± 0.13
403.31 K	–	56.55 ± 0.14
404.73 K	–	59.01 ± 0.14
406.27 K	–	61.77 ± 0.15
407.78 K	–	64.58 ± 0.16
408.93 K	–	66.76 ± 0.16
410.11 K	–	69.09 ± 0.17
411.32 K	–	71.53 ± 0.17
412.52 K	–	74.01 ± 0.18
413.68 K	–	76.48 ± 0.18
414.83 K	–	79.03 ± 0.19
415.9 K	–	81.41 ± 0.19
417.22 K	–	84.44 ± 0.2
418.24 K	–	86.85 ± 0.2
419.28 K	–	89.41 ± 0.21
420.5 K	–	92.43 ± 0.21
421.62 K	–	95.25 ± 0.22
422.83 K	–	98.4 ± 0.23
423.2 K	–	99.35 ± 0.23
423.61 K	–	100.44 ± 0.23
423.94 K	–	101.32 ± 0.23
424.92 K	–	104 ± 0.24
425.83 K	–	106.5 ± 0.24
426.71 K	–	108.99 ± 0.25
427.6 K	–	111.54 ± 0.25
428.4 K	–	113.88 ± 0.26
429.26 K	–	116.44 ± 0.27
430.22 K	–	119.35 ± 0.27
431.09 K	–	122.04 ± 0.28
432.04 K	–	124.99 ± 0.28
432.94 K	–	127.82 ± 0.29
433.74 K	–	130.52 ± 0.3
434.68 K	–	133.6 ± 0.3
435.58 K	–	136.62 ± 0.31
436.31 K	–	139.12 ± 0.31
437.11 K	–	141.9 ± 0.32
437.95 K	–	144.81 ± 0.33
438.67 K	–	147.42 ± 0.33
439.45 K	–	150.23 ± 0.34
440.11 K	–	152.67 ± 0.34
440.76 K	–	155.08 ± 0.35
441.41 K	–	157.53 ± 0.35
442.05 K	–	159.98 ± 0.36
442.77 K	–	162.8 ± 0.36
443.49 K	–	165.61 ± 0.37
444.23 K	–	168.53 ± 0.38
444.93 K	–	171.39 ± 0.38
445.49 K	–	173.63 ± 0.39
446.19 K	–	176.52 ± 0.39
446.75 K	–	178.85 ± 0.4
447.44 K	–	181.82 ± 0.41
448.07 K	–	184.55 ± 0.41
448.61 K	–	186.86 ± 0.41
449.27 K	–	189.75 ± 0.42
449.81 K	–	192 ± 1
450.56 K	–	195.54 ± 0.44
